Data as given in US7332476B2, “Pyridyl substituted ketolide antibiotics” (Novartis AG, priority 2003, dated 2008).
Values after ≈ are worked out from the molar mass of the structure shown.

Assays:
Experiment in all cases: MIC, broth microdilution (NCCLS)
[1] = tested on: Streptococcus pneumoniae Stpn_Mef 5654; format: cell-based; settings: Table 5, Strain ID J (Table 4): S. pneumoniae Stpn_Mef 5654; in µg/mL (unit assumed)
In short: (§1)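 NCCLS broth microdilution with 2-fold serial drug dilutions (methanol stocks diluted in water); inoculum 3×10^5–7×10^5 CFU/ml in CAMHB, with 2-5% lysed horse blood for S. pneumoniae. Incubation 18-24 h at 35° C., ambient air, except S. pneumoniae (5-10% CO2). MIC is lowest concentration preventing visible growth.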

[2] = tested on: Streptococcus pneumoniae Stpn_280-962; format: cell-based; design: MIC, strain ID O: unit not given beside the values; settings: for MIC: Table 5, Strain ID G (Table 4): S. pneumoniae Stpn_280-962 Pen S; for MIC, strain ID O: broth microdilution
In short: as §1

[3] = tested on: Streptococcus pneumoniae Stpn_297-749; format: cell-based; design: MIC, strain ID N: unit not given here; settings: for MIC: Table 5, Strain ID F (Table 4): S. pneumoniae Stpn_297-749 Pen R; for MIC, strain ID N: broth microdilution
In short: as §1

[4] = tested on: Enterococcus faecalis Enfa_29212; format: cell-based; settings: for MIC: Table 5, Strain ID C (Table 4): E. faecalis Enfa_29212; for MIC, strain ID E: broth microdilution
In short: as §1

[5] = tested on: Staphylococcus epidermidis Step_14990; format: cell-based; settings: in µg/mL (unit assumed); for MIC: Table 5, Strain ID A (Table 4): S. epidermidis Step_14990; for MIC, strain ID C: broth microdilution
In short: as §1

[6] = tested on: Streptococcus pneumoniae Stpn_Mef S 3427; format: cell-based; settings: Table 5, Strain ID K (Table 4): S. pneumoniae Stpn_Mef S 3427
In short: as §1

[7] = tested on: Haemophilus influenzae Hain_49247; format: cell-based; settings: unit assumed; for MIC: Table 5, Strain ID L (Table 4): H. influenzae Hain_49247; for MIC, strain ID H: broth microdilution
[8] = tested on: Streptococcus pneumoniae Stpn_Erm S 4297; format: cell-based; settings: for MIC: Table 5, Strain ID I (Table 4): S. pneumoniae Stpn_Erm S 4297, unit assumed; for MIC, strain ID Q: broth microdilution, in µg/mL (unit assumed)
In short: as §1

[9] = tested on: Staphylococcus epidermidis Step_f50654; format: cell-based; settings: in µg/mL (unit assumed); for MIC: Table 5, Strain ID B (Table 4): S. epidermidis Step_f50654 Pen S; for MIC, strain ID D: broth microdilution
In short: as §1

[10] = tested on: S. pneumoniae Stpn_Erm 6849; format: cell-based, Streptococcus pneumoniae; settings: for MIC: Table 5, Strain ID H (Table 4): S. pneumoniae Stpn_Erm 6849, unit assumed; for MIC, strain ID P: broth microdilution, in µg/mL (unit assumed)
In short: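 S. pneumoniae MIC by NCCLS broth microdilution in cation-adjusted Mueller-Hinton broth with 2-5% lysed horse blood, inoculum 3×10^5–7×10^5 CFU/ml, 2-fold drug dilutions. Incubated 18-24 hours at 35° C. in 5-10% CO2; MIC is lowest concentration preventing visible growth.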

[11] = tested on: Streptococcus pneumoniae Stpn_49619; format: cell-based; design: MIC, strain ID M: unit not given beside the values; settings: for MIC: Table 5, Strain ID E (Table 4): S. pneumoniae Stpn_49619; for MIC, strain ID M: broth microdilution
In short: as §1

[12] = tested on: Streptococcus pyogenes Stpy_8668; format: cell-based; design: MIC, strain ID G: unit not given beside the values; settings: for MIC: Table 5, Strain ID D (Table 4): S. pyogenes Stpy_8668; for MIC, strain ID G: broth microdilution
In short: as §1

E. coli Esco_25922 = format: cell-based; settings: Table 5, Strain ID M (Table 4): E. coli Esco_25922; unit assumed
Description: Strains. The bacterial isolates listed in Table 4 were cultivated from −70° C. frozen stocks by two consecutive overnight passages (P1, P2) at 35° C. on 5% blood agar (Remel, Lenexa, Kans.). Chocolate agar (Remel) is used for Haemophilus influenzae. H. influenzae and Streptococcus pneumoniae are incubated in 5-10% CO2
Drug Stock Preparation. To determine the amount of solvent to be used to give the desired final concentration, the formula “weight obtained in mg/final concentration in mg/ml” will be used. It will give the amount of solvent in ml needed to be added to give the desired concentration. For example, if 2.5 mg/ml is the desired concentration and the weight of compound is 13.7 mg, then the amount of solvent to be added is […]. Methanol is used as the solvent to dissolve the test compounds. Further dilution of stock is done in sterile, deionized water. Drug stocks are kept frozen at −70° C., protected from light.
Susceptibility Testing. MICs are determined by the broth microdilution method in accordance with the NCCLS guidelines. In brief, organism suspensions are adjusted to a 0.5 McFarland standard to yield a final inoculum between 3×10^5 and 7×10^5 CFU/ml. Drug dilutions and inocula are made in sterile, cation adjusted Mueller-Hinton Broth (CAMHB) (Remel) for all but S. pneumoniae [CAMHB with 2-5% lysed horse blood (Remel)] and H. influenzae [Haemophilus Test Medium (Remel)]. An inoculum volume of 100 μl is added to wells containing 100 μl of broth with 2-fold serial dilutions of drug. All inoculated microdilution trays are incubated in ambient air at 35° C. for 18-24 hours, except for S. pneumoniae, and H. influenzae (both at 5-10% CO2).
Following appropriate incubation, the MIC is determined and the MIC is defined as the lowest concentration of the drug that prevented visible growth.

[13] = tested on: Haemophilus influenzae Hain_960730503-3; format: cell-based; settings: strain ID I; broth microdilution; in µg/mL (unit assumed)
In short: (§2)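 MIC read visually as lowest drug concentration with no growth after 18-24 h at 35° C; ambient air for staphylococci and enterococci, 5-10% CO2 for H. influenzae. Inoculum 3×10^5–7×10^5 CFU/ml; CAMHB or Haemophilus Test Medium.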

[14] = tested on: Haemophilus influenzae Hain_960820544-3; format: cell-based; settings: strain ID J; broth microdilution; in µg/mL (unit assumed)
In short: as §2

[15] = tested on: Haemophilus influenzae Hain_2762; format: cell-based; settings: strain ID L; broth microdilution; in µg/mL (unit assumed)
In short: as §2

[16] = tested on: Staphylococcus aureus Stau_33591; format: cell-based; settings: strain ID B; broth microdilution; unit assumed
In short: as §2

[17] = tested on: Haemophilus influenzae Hain_953460299-3; format: cell-based; settings: strain ID K; broth microdilution; in µg/mL (unit assumed)
In short: as §2

[18] = tested on: Enterococcus faecalis Enfa_bc 11148-2; format: cell-based; settings: strain ID F; broth microdilution; in µg/mL (unit assumed)
In short: as §2

[19] = tested on: Staphylococcus aureus Stau_29213; format: cell-based; settings: strain ID A; broth microdilution; in µg/mL (unit assumed)
In short: as §1

SMILES	MIC [1]	MIC [2]	MIC [3]	MIC [9]	MIC, strain ID I [13]	MIC, strain ID J [14]	MIC, strain ID L [15]	MIC, strain ID B [16]	MIC, strain ID K [17]	MIC, strain ID F [18]	MIC, strain ID O [2]	MIC, strain ID N [3]	MIC, strain ID C [5]	MIC, strain ID H [7]	MIC, strain ID Q [8]	MIC, strain ID A [19]	MIC, strain ID D [9]	MIC, strain ID P [10]	MIC, strain ID M [11]	MIC, strain ID G [12]	also measured
CC[C@H]1OC(=O)[C@H](C)C(=O)[C@H](C)[C@@H](OC2O[C@H](C)C[C@H](N(C)C)[C@H]2O)[C@@](C)(OC)C[C@@H](C)C(=O)[C@H](C)[C@@H]2[C@@H]1OC(=O)N2CCCCc1ccnc2ccccc12 (stereo partly shown) [Compound 6220]	0.4	=0.05	=0.05	0.1																	MIC [4]: =0.05; MIC [5]: 0.1; MIC [6]: =0.5; MIC [7]: 1.56 mg/L (≈ 1.99 µM); MIC [8]: 0.1 mg/L (≈ 0.128 µM); MIC [10]: 3.13 mg/L (≈ 4 µM); MIC [11]: =0.05; MIC [12]: =0.05; MIC (E. coli Esco_25922): 6.25 mg/L (≈ 7.99 µM)
CC[C@H]1OC(=O)[C@H](C)C(=O)[C@H](C)[C@@H](OC2O[C@H](C)C[C@H](N(C)C)[C@H]2O)[C@@](C)(OC)C[C@@H](C)C(=O)[C@H](C)[C@H]2N(CCCCn3cnc4ccccc43)C(=O)O[C@]12CC (stereo partly shown) [Compound 7282]	0.4	=0.05	=0.05	0.2																	MIC ([4]; in µg/mL (unit assumed)): 0.1; MIC [5]: 0.4; MIC ([6]; in µg/mL (unit assumed)): 0.1; MIC [7]: 3.13 mg/L (≈ 3.92 µM); MIC [8]: 0.2 mg/L (≈ 0.25 µM); MIC [10]: 0.78 mg/L (≈ 0.976 µM); MIC [11]: =0.05; MIC [12]: =0.05; MIC (E. coli Esco_25922): 12.5 mg/L (≈ 15.6 µM)
CC[C@H]1OC(=O)[C@H](C)C(=O)[C@H](C)[C@@H](OC2O[C@H](C)C[C@H](N(C)C)[C@H]2O)[C@@](C)(OC)C[C@@H](C)C(=O)[C@H](C)[C@@H]2[C@@H]1OC(=O)N2CCCCn1cnc(-c2ccc(Cl)nc2)c1 (stereo partly shown) [XXVIII]					6.25	6.25	1.56	> 50 mg/L	12.5	0.4	=0.05	=0.05	0.1	6.25 mg/L (≈ 7.51 µM)	0.1	0.2	0.2	0.78	=0.05	=0.05	MIC, strain ID E [4]: =0.05
C=C[C@]12OC(=O)N(CCCCn3cnc(-c4cccnc4Cl)c3)[C@@H]1[C@@H](C)C(=O)[C@H](C)C[C@](C)(OC)[C@H](OC1O[C@H](C)C[C@H](N(C)C)[C@H]1O)[C@@H](C)C(=O)[C@@H](C)C(=O)O[C@@H]2CC (stereo partly shown) [XXXVI]					6.25	6.25	1.56	> 50 mg/L	6.25	1.56	=0.05	=0.05	0.1	3.13 mg/L (≈ 3.65 µM)	0.1	0.2	0.2	0.78	=0.05	=0.05	MIC, strain ID E ([4]; in µg/mL (unit assumed)): 0.1
C=C[C@]12OC(=O)N(CCCCn3cnc(-c4cnccc4OC)c3)[C@@H]1[C@@H](C)C(=O)[C@H](C)C[C@](C)(OC)[C@H](OC1O[C@H](C)C[C@H](N(C)C)[C@H]1O)[C@@H](C)C(=O)[C@@H](C)C(=O)O[C@@H]2CC (stereo partly shown) [XXXV]					6.25	6.25	1.56	> 50 mg/L	6.25	0.78	=0.05	=0.05	0.1	6.25 mg/L (≈ 7.32 µM)	0.2	0.2	0.1	0.78	=0.05	=0.05	MIC, strain ID E ([4]; in µg/mL (unit assumed)): 0.1
CC[C@H]1OC(=O)[C@H](C)C(=O)[C@H](C)[C@@H](OC2O[C@H](C)C[C@H](N(C)C)[C@H]2O)[C@@](C)(OC)C[C@@H](C)C(=O)[C@H](C)[C@H]2N(CCCCc3ccnc4ccccc34)C(=O)O[C@]12CC (stereo partly shown) [Compound 7283]	0.4	=0.05	=0.05	0.2																	MIC [6]: =0.05; MIC [10]: 0.4 mg/L (≈ 0.494 µM); MIC [11]: =0.05; MIC [12]: =0.05; MIC (E. coli Esco_25922): 12.5 mg/L (≈ 15.4 µM)
C#C[C@]12OC(=O)N(CCCCn3cnc(-c4ccc(OC)nc4)c3)[C@@H]1[C@@H](C)C(=O)[C@H](C)C[C@](C)(OC)[C@H](OC1O[C@H](C)C[C@H](N(C)C)[C@H]1O)[C@@H](C)C(=O)[C@@H](C)C(=O)O[C@@H]2CC (stereo partly shown) [XXXII]					12.5	12.5	1.56	> 50 mg/L	12.5	1.56	=0.05	=0.05	0.1	6.25 mg/L (≈ 7.34 µM)	0.2	0.2	0.2	0.78	=0.05	=0.05	MIC, strain ID E ([4]; in µg/mL (unit assumed)): 0.1
